{
  "source": "patent US20230293518A1",
  "about": "(Edgewise Therapeutics, Inc., priority 2020, published 2023)",
  "data": [
    {"molecular_target": "skeletal myofibrils (myosin ATPase)", "experiment": "Skeletal Myofibril ATPase Assay", "format": "biochemical", "conditions": "Table 4A", "method": "(§1) Example 12. Skeletal Myofibril ATPase Assay\n(§2) Overview: Myosin ATPase activity is assessed by using a coupled reaction system, in which ADP generated by the myosin ATPase function is coupled to the disappearance of NADH through the pyruvate kinase/lactate dehydrogenase (PK-LDH) system. ATPase activity produces ADP, which is used as a substrate for PK to produce pyruvate and regenerate ATP. The pyruvate is then used as a substrate by LDH to oxidize NADH to NAD+. The rate of the reaction is monitored through the time-dependent disappearance of NADH using absorbance at 340 nm. Inhibition of ATPase activity by the assayed compounds is indicated by a reduced rate of NADH loss, relative to vehicle-treated controls, over the experimental time window. To assess the selectivity of the assayed compounds for skeletal myofibrils, the compounds are counter-screened in cardiac myofibrils.\n(§3) Materials: The following stock solutions and reagents were used in the Skeletal Myofibril ATPase Assay:\n(§4) Stock Solutions of pCa buffer. Combine PIPES, CaCl2, and EGTA solutions with 70 mL of water. Adjust pH to 7.0 and bring final volume to 100 mL.\n(§5) Buffer A & Buffer B. Buffers were stored on ice until use.\n(§6) Skeletal Myofibril ATPase Assay Procedure: BSA, ATP, NADH, PEP, and DTT solutions were thawed at room temperature, then transferred to ice. Pellet-frozen myofibrils were transferred with approximately twice the required volume into a sufficiently large tube and capped. Myofibrils were thawed by rolling in a water bath for approximately 15 min at room temperature and cooled on ice. Buffers A and B were prepared by adjusting volumes as necessary for required number of wells and stored on ice. 0.5 μL of the compounds to be assayed were added into wells. 25 μL of Buffer A was dispensed into the wells, followed by 25 μL of Buffer B. The wells were measured for absorbance at 340 nm, using a kinetic protocol in which the wells are read every 1.5-2 min for 45 min. The slope of the data was approximated by subtracting the minimum absorbance value from the maximum value for each well. This was accomplished either in the SoftMax Pro software or in a spreadsheet program such as Excel. Using GraphPad Prism 8.0, the data was normalized by assigning a value of 100% to the 1% DMSO vehicle wells. Typically, a normalized 0% value was simply assigned to a (Max−Min) value of 0. The normalized data was fit to a Four Parameter Logistic sigmoidal equation, constraining the bottom to be 0 or greater. Compounds of Table 1, 2, and 3 were tested and results of the assay appear in Tables 4a-4c. A=IC50 is less than or equal to 10 μM; B═IC50 is greater than 10 μM and less than 100 μM; C═IC50 is greater than 100 μM.", "units": {"IC50": "µM"}, "values": [
      {"compound": "Cn1nccc1CNC(=O)Cn1nc(-c2ccc(OC(F)F)nc2)ccc1=O", "note": "[Compound I-30, 2-(3-(6-(difluoromethoxy)pyridin-3-yl)-6-oxopyridazin-1(6H)-yl)-N-((1-methyl-1H-pyrazol-5-yl)methyl)acetamide]", "IC50": "> 100"},
      {"compound": "CCNC(=O)Cn1nc(-c2ccc(N3CCC34COC4)nc2)ccc1=O", "note": "[Compound I-19, 2-(3-(6-(6-oxa-1-azaspiro[3.3]heptan-1-yl)pyridin-3-yl)-6-oxopyridazin-1(6H)-yl)-N-ethylacetamide]", "IC50": "10 to 100"},
      {"compound": "CCNC(=O)Cn1nc(-c2ccc(N3CC(COC(F)(F)F)C3)nc2)ccc1=O", "note": "[Compound I-40, N-ethyl-2-(6-oxo-3-(6-(3-((trifluoromethoxy)methyl)azetidin-1-yl)pyridin-3-yl)pyridazin-1(6H)-yl)acetamide]", "IC50": "10 to 100"},
      {"compound": "CCNC(=O)Cn1nc(-c2ccc(N3CC(F)(F)C3)nc2)ccc1=O", "note": "[Compound I-6, 2-(3-(6-(3,3-difluoroazetidin-1-yl)pyridin-3-yl)-6-oxopyridazin-1(6H)-yl)-N-ethylacetamide]", "IC50": "10 to 100"},
      {"compound": "CCNC(=O)Cn1nc(-c2ccc(OCCCN(C)C)nc2)ccc1=O", "note": "[Compound I-28, 2-(3-(6-(3-(dimethylamino)propoxy)pyridin-3-yl)-6-oxopyridazin-1(6H)-yl)-N-ethylacetamide]", "IC50": "> 100"},
      {"compound": "O=C(Cn1nc(-c2ccc(OC(F)F)nc2)ccc1=O)N[C@H]1CC12CC2", "note": "[Compound I-17, (S)-2-(3-(6-(difluoromethoxy)pyridin-3-yl)-6-oxopyridazin-1(6H)-yl)-N-(spiro[2.2]pentan-1-yl)acetamide]", "IC50": "10 to 100"},
      {"compound": "O=C(Cn1nc(-c2cnc(NC34CC(C3)C4)nc2)ccc1=O)NC1CCC1", "note": "[Compound I-50, 2-(3-(2-(bicyclo[1.1.1]pentan-1-ylamino)pyrimidin-5-yl)-6-oxopyridazin-1(6H)-yl)-N-cyclobutylacetamide]", "IC50": "< 10"},
      {"compound": "O=C(Cn1nc(-c2cnc(OCCOC(F)(F)F)nc2)ccc1=O)NC1CCC1", "note": "[Compound I-72, N-cyclobutyl-2-(6-oxo-3-(2-(2-(trifluoromethoxy)ethoxy)pyrimidin-5-yl)pyridazin-1(6H)-yl)acetamide]", "IC50": "< 10"},
      {"compound": "CCNC(=O)Cn1nc(-c2cnc(OCCOC(F)(F)F)nc2)ccc1=O", "note": "[Compound I-49, N-ethyl-2-(6-oxo-3-(2-(2-(trifluoromethoxy)ethoxy)pyrimidin-5-yl)pyridazin-1(6H)-yl)acetamide]", "IC50": "10 to 100"},
      {"compound": "O=C(Cn1nc(-c2ccc(OC(F)F)nc2)ccc1=O)NCc1ccccc1Cl", "note": "[Compound I-69, N-(2-chlorobenzyl)-2-(3-(6-(difluoromethoxy)pyridin-3-yl)-6-oxopyridazin-1(6H)-yl)acetamide]", "IC50": "< 10"},
      {"compound": "O=C(Cn1nc(-c2ccc(OC(F)F)nc2)ccc1=O)NC1CCC1", "note": "[Compound I-4, N-cyclobutyl-2-(3-(6-(difluoromethoxy)pyridin-3-yl)-6-oxopyridazin-1(6H)-yl)acetamide]", "IC50": "< 10"},
      {"compound": "COc1ccc(-c2ccc(=O)n(CC(=O)NCc3ccccc3Cl)n2)cn1", "note": "[Compound I-5, N-(2-chlorobenzyl)-2-(3-(6-methoxypyridin-3-yl)-6-oxopyridazin-1(6H)-yl)acetamide]", "IC50": "< 10"}
    ]},
    {"molecular_target": "skeletal myofibrils (myosin ATPase)", "experiment": "Skeletal Myofibril ATPase Assay", "format": "biochemical", "conditions": "Table 4B", "method": "as §1, §2, §3, §4, §5, §6", "units": {"IC50": "µM"}, "values": [
      {"compound": "O=C(Cn1nc(-c2ccc(OC(F)F)cc2)ccc1=O)NCC(F)F", "note": "[II-15, N-(2,2-difluoroethyl)-2-(3-(4-(difluoromethoxy)phenyl)-6-oxopyridazin-1(6H)-yl)acetamide]", "IC50": "10 to 100"},
      {"compound": "CCNC(=O)Cn1nc(-c2ccc(OC(F)F)cc2)cc(C)c1=O", "note": "[II-21, 2-(3-(4-(difluoromethoxy)phenyl)-5-methyl-6-oxopyridazin-1(6H)-yl)-N-ethylacetamide]", "IC50": "> 100"}
    ]},
    {"molecular_target": "skeletal myofibrils (myosin ATPase)", "experiment": "Skeletal Myofibril ATPase Assay", "format": "biochemical", "conditions": "Table 4C", "method": "as §1, §2, §3, §4, §5, §6", "units": {"IC50": "µM"}, "values": [
      {"compound": "O=C(Cn1nc(-c2ccc(Cl)cc2)ccc1=O)Nc1ccccc1F", "note": "[IIIc-27, 2-(3-(4-chlorophenyl)-6-oxopyridazin-1(6H)-yl)-N-(2-fluorophenyl)acetamide]", "IC50": "10 to 100"},
      {"compound": "COc1ccc(-c2ccc(=O)n(CC(=O)NCc3ccccc3Cl)n2)cc1C", "note": "[IIIa-23, N-(2-chlorobenzyl)-2-(3-(4-methoxy-3-methylphenyl)-6-oxopyridazin-1(6H)-yl)acetamide]", "IC50": "10 to 100"},
      {"compound": "COc1ccccc1NC(=O)Cn1nc(-c2ccc(Cl)cc2)ccc1=O", "note": "[IIIc-23, 2-(3-(4-chlorophenyl)-6-oxopyridazin-1(6H)-yl)-N-(2-methoxyphenyl)acetamide]", "IC50": "< 10"},
      {"compound": "COc1ccc(CNC(=O)Cn2nc(-c3ccc(OC)cc3)ccc2=O)cc1", "note": "[IIIb-34, N-(4-methoxybenzyl)-2-(3-(4-methoxyphenyl)-6-oxopyridazin-1(6H)-yl)acetamide]", "IC50": "10 to 100"},
      {"compound": "COc1ccc(-c2ccc(=O)n(CC(=O)NCc3ccccn3)n2)cc1", "note": "[IIIa-30, 2-(3-(4-methoxyphenyl)-6-oxopyridazin-1(6H)-yl)-N-(pyridin-2-ylmethyl)acetamide]", "IC50": "> 100"},
      {"compound": "CC[C@H](C)NC(=O)Cn1nc(-c2ccc(C)cc2)ccc1=O", "note": "[IIIc-2, (S)-N-(sec-butyl)-2-(6-oxo-3-(p-tolyl)pyridazin-1(6H)-yl)acetamide]", "IC50": "< 10"},
      {"compound": "O=C(Cn1nc(-c2ccc(Cl)cc2)ccc1=O)Nc1ccc2[nH]ccc2c1", "note": "[IIIc-22, 2-(3-(4-chlorophenyl)-6-oxopyridazin-1(6H)-yl)-N-(1H-indol-5-yl)acetamide]", "IC50": "< 10"},
      {"compound": "COc1ccc(-c2ccc(=O)n(CC(=O)NCC3CCCCC3)n2)cc1", "note": "[IIIa-4, N-(cyclohexylmethyl)-2-(3-(4-methoxyphenyl)-6-oxopyridazin-1(6H)-yl)acetamide]", "IC50": "< 10"},
      {"compound": "COc1ccc(-c2ccc(=O)n(CC(=O)Nc3cccc4[nH]ccc34)n2)c(F)c1", "note": "[IIIb-2, 2-(3-(2-fluoro-4-methoxyphenyl)-6-oxopyridazin-1(6H)-yl)-N-(1H-indol-4-yl)acetamide]", "IC50": "< 10"},
      {"compound": "COc1ccc(-c2ccc(=O)n(CC(=O)NCc3ccccc3C(F)(F)F)n2)cc1", "note": "[IIIa-11, 2-(3-(4-methoxyphenyl)-6-oxopyridazin-1(6H)-yl)-N-(2-(trifluoromethyl)benzyl)acetamide]", "IC50": "< 10"},
      {"compound": "COc1ccc(-c2ccc(=O)n(CC(=O)NCc3ccc(F)cc3)n2)cc1", "note": "[IIIb-50, N-(4-fluorobenzyl)-2-(3-(4-methoxyphenyl)-6-oxopyridazin-1(6H)-yl)acetamide]", "IC50": "> 100"},
      {"compound": "O=C(Cn1nc(-c2ccccc2)ccc1=O)Nc1ccccc1F", "note": "[IIIc-66, N-(2-fluorophenyl)-2-(6-oxo-3-phenylpyridazin-1(6H)-yl)acetamide]", "IC50": "> 100"},
      {"compound": "COc1ccc(-c2ccc(=O)n(CC(=O)NCCc3ccccc3)n2)cc1", "note": "[IIIa-5, 2-(3-(4-methoxyphenyl)-6-oxopyridazin-1(6H)-yl)-N-phenethylacetamide]", "IC50": "< 10"},
      {"compound": "COc1ccc(-c2ccc(=O)n(CC(=O)NC(C)(C)c3ccccc3)n2)cc1", "note": "[IIIa-9, 2-(3-(4-methoxyphenyl)-6-oxopyridazin-1(6H)-yl)-N-(2-phenylpropan-2-yl)acetamide]", "IC50": "< 10"},
      {"compound": "O=C(Cn1nc(-c2ccccc2)ccc1=O)NC1CC1", "note": "[IIIc-65, N-cyclopropyl-2-(6-oxo-3-phenylpyridazin-1(6H)-yl)acetamide]", "IC50": "> 100"},
      {"compound": "COc1ccc(Cl)cc1NC(=O)Cn1nc(-c2ccccc2)ccc1=O", "note": "[IIIc-62, N-(5-chloro-2-methoxyphenyl)-2-(6-oxo-3-phenylpyridazin-1(6H)-yl)acetamide]", "IC50": "> 100"},
      {"compound": "CCC1CCC(CNC(=O)Cn2nc(-c3ccccc3)ccc2=O)CC1", "note": "(stereo not drawn) [IIIc-55, N-((4-ethylcyclohexyl)methyl)-2-(6-oxo-3-phenylpyridazin-1(6H)-yl)acetamide]", "IC50": "10 to 100"},
      {"compound": "COc1ccc(-c2ccc(=O)n(CC(=O)NCCC3=CCCCC3)n2)cc1", "note": "[IIIb-14, N-(2-(cyclohex-1-en-1-yl)ethyl)-2-(3-(4-methoxyphenyl)-6-oxopyridazin-1(6H)-yl)acetamide]", "IC50": "< 10"},
      {"compound": "O=C(Cn1nc(-c2ccc3c(c2)OCCO3)ccc1=O)Nc1ccccc1F", "note": "[IIIb-6, 2-(3-(2,3-dihydrobenzo[b][1,4]dioxin-6-yl)-6-oxopyridazin-1(6H)-yl)-N-(2-fluorophenyl)acetamide]", "IC50": "< 10"},
      {"compound": "COc1ccc(-c2ccc(=O)n(CC(=O)Nc3cccc(C)n3)n2)cc1", "note": "[IIIb-59, 2-(3-(4-methoxyphenyl)-6-oxopyridazin-1(6H)-yl)-N-(6-methylpyridin-2-yl)acetamide]", "IC50": "> 100"},
      {"compound": "CC(C)NC(=O)Cn1nc(-c2ccc(Br)cc2)ccc1=O", "note": "[IIIc-40, 2-(3-(4-bromophenyl)-6-oxopyridazin-1(6H)-yl)-N-isopropylacetamide]", "IC50": "10 to 100"},
      {"compound": "COc1ccc(-c2ccc(=O)n(CC(=O)NC3Cc4ccccc4C3)n2)cc1", "note": "[IIIb-8, N-(2,3-dihydro-1H-inden-2-yl)-2-(3-(4-methoxyphenyl)-6-oxopyridazin-1(6H)-yl)acetamide]", "IC50": "< 10"}
    ]}
  ]
}
